Measurements taken from the supplement of paper PMC5770543.
± gives the standard deviation.

Columns and labels:
[1] = test system: Toxoplasma gondii RH tachyzoites; assay: % growth inhibition vs DMSO (48 h luciferase); higher = more inhibition; settings: 10 µM
[2] = test system: Plasmodium falciparum 3D7; assay: EC50 growth inhibition (60 h, SYBR Green); settings: stage: ring-stage start
[3] = target: Toxoplasma gondii RH tachyzoites; assay: EC50 growth inhibition (48 h luciferase)
[4] = test system: Plasmodium falciparum 3D7; assay: % inhibition of schizont-to-ring transition vs DMSO; higher = more inhibition
How it was run: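 Tightly synchronised P. falciparum schizonts (about 40–42 hours post-invasion, 1% parasitemia, 2.5% hematocrit, AlbuMAX-supplemented RPMI) were exposed to compound at 1, 3 or 10 µM, with vehicle and positive controls. Cells were glutaraldehyde-fixed, Triton-permeabilised, stained with Hoechst 33342 and counted by flow cytometry (at least 100,000 events). Schizont-to-ring transition inhibition is new ring formation relative to vehicle controls, averaged over three experiments.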

[5] = test system: Toxoplasma gondii RH tachyzoites; assay: plaque count per well; higher = less inhibition; extreme values may be limits of the assay; settings: 10 µM; 8-10 days
Experimental: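 T. gondii RH tachyzoites expressing firefly luciferase were grown in HFF monolayers for 48 h with compound. % growth inhibition at 10 µM and EC50 (2-fold dilutions from 10 µM) were read by luminescence relative to 1% DMSO; EC50 listed as 10 (not determined, <80% inhibition) is left out. Plaque assays: 50 tachyzoites per well with 10 µM compound for 8-10 days, giving plaque count and area by crystal violet/ImageJ. Egress: median time to egress after 1 µM A23187 ionophore following 24 h of 10 µM compound (DMSO ~1.8 min; >10 = no egress within 10 min).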
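Wherever % growth inhibition vs DMSO (48 h luciferase) is given: tested in triplicate wells of 96-well plates on confluent HFF monolayers, with 1% DMSO wells as negative control in four replicates.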

SMILES	% growth inhibition [1] [%]	EC50 growth inhibition [2] [nM]	EC50 growth inhibition [3] [nM]	% inhibition of schizont-to-ring transition ([4]; 1 µM) [%]	% inhibition of schizont-to-ring transition ([4]; 3 µM) [%]	% inhibition of schizont-to-ring transition ([4]; 10 µM) [%]	plaque count per well [5]
COc1ccccc1N1C(=N)SC(=Cc2ccc(OCc3ccccc3F)cc2)C1=O	93.42 ± 0.8	4920	978	14.8	30.1	52.5	
COc1cc2c(cc1OC)C1=NNC(=O)C1=NC(C)(C)C2	80.4 ± 1.2	1790	3260	14.2	25.3	63.4	
Oc1c(C(Nc2ccccn2)c2cccc(Oc3ccccc3)c2)ccc2cccnc12 (stereo not drawn)	99.07 ± 0.26	852	1080	27.1	43.9	64.8	
COc1ccc(C(O)(CCC(C)C)C(CN2CCOCC2)c2ccc(Cl)cc2)cc1 (stereo not drawn)	100.9 ± 0.49	2090	4870	8.88	11.2	32.8	
COc1ccc(C2NCCc3c2[nH]c2ccccc32)cc1CN1CCN(c2ccc(F)cc2)CC1 (stereo not drawn)	99.96 ± 0.41	468	4880	26.9	62.9	77.3	
Cc1ccccc1OCCSc1nc2ccc(NC(=O)c3cccs3)cc2s1	99.844 ± 0.082	3730	1160	10.7	28.6	55.5	
CCc1ccc(Nc2cc(C)c3ccc(O)cc3n2)cc1	97.8 ± 1.4	286	3050	58.8	82.3	80.4	
CC(C)(C)CC(C)(C)NCC(O)COc1ccc(Cl)cc1Cl (stereo not drawn)	99.763 ± 0.02	576	2050	22.6	40.4	78.1	
Cc1ccc(C2CC(C(F)(F)F)n3nc(C(=O)N4CCN(C(c5ccccc5)c5ccccc5)CC4)cc3N2)cc1 (stereo not drawn)	99.677 ± 0.058	2040	1660	< 0	< 0	35.3	
COc1ccccc1NC1=C(N2CCCCC2)C(=O)c2ccccc2C1=O	90.3 ± 3.8	35.9	4950	38.5	61.8	64.7	
COc1ccc(/C=C2/SC(Nc3ccc(F)cc3)=NC2=O)c(OC)c1	92 ± 2.3	880	7.69	23.5	31.5	54.2	
Nc1nc(Nc2cccc(F)c2)nc2ccccc12	100.5 ± 0.22	1030	8210	15.3	31.5	62.7	
CCCCCn1c(=N)n(CC(O)COc2cccc(C)c2)c2ccccc21 (stereo not drawn)	99.47 ± 0.32	1940	1770	8.72	13.3	61.9	
O=C(Nc1ccccc1O)c1ccc(Oc2cccc(C(=O)Nc3ccccc3O)c2)cc1	99.35 ± 0.37	1840	1670	0.57	30	46.7	
COc1cccc(Nc2nc(NCCO)c3ccccc3n2)c1	97.5 ± 1.6	456	1090	39.7	60.8	65.6	
Cc1ccc2nc(C)cc(Nc3cccc(C(F)(F)F)c3)c2c1	99.29 ± 0.18	894	465	2.29	31.8	62.9	
Oc1ccc2ccccc2c1CNc1nc2ccccc2[nH]1	95.1 ± 1.9	2930	430	41.7	57.8	70.5	
COCCNC(=O)c1ccc(OC2CCN(Cc3ccc(F)c(F)c3)CC2)c(Cl)c1	97.36 ± 0.96	1250	270	10.5	23.7	52.4	
O=C(Nc1ccc(Br)cc1)Nc1cccc(Cl)c1	96.13 ± 0.57		3770	24.1	22.5	58.1	
O=C(NC(c1ccccc1)c1ccc2cccnc2c1O)c1ccccc1 (stereo not drawn)	99.71 ± 0.23	3660	770	13.5	35.6	53.7	
CC(C)OCc1cc(CN2CCN(c3cccc(Cl)c3)CC2)c(O)c2ncccc12	81.6 ± 18	3170	1690	7.59	35.5	53.9	

SMILES	% growth inhibition [1] [%]	EC50 growth inhibition [2] [nM]	EC50 growth inhibition [3] [nM]	% inhibition of schizont-to-ring transition ([4]; 1 µM) [%]	% inhibition of schizont-to-ring transition ([4]; 3 µM) [%]	% inhibition of schizont-to-ring transition ([4]; 10 µM) [%]	plaque count per well [5]
OC(CNCc1ccccc1)Cn1c2ccccc2c2ccccc21 (stereo not drawn)	48.3 ± 2	2200	286	37.8	43	65.5	
CCOC(=O)C1=C(c2ccccc2)N=c2sc(=Cc3cc(C)n(-c4ccc(F)cc4)c3C)c(=O)n2C1c1cccc(OC)c1OC (stereo not drawn)	92.3 ± 2	493	1500	0.392	3.17	14.4	
CCN(CC)CCn1c(=N)n(CC(O)c2ccc(Cl)c(Cl)c2)c2ccccc21 (stereo not drawn)	85.7 ± 6.1	267	1310	51	73.3	78.2	
O=C(Nc1ccc(F)c(Cl)c1)Nc1ccc(Cl)c(Cl)c1	100.1 ± 0.21	3980	346	36.5	55.4	77.4	
CCOc1ccc(-n2cc(-c3ccccc3)c3c(SCc4cc(C)ccc4C)ncnc32)cc1	86.5 ± 1.3		3170	1.01	7.47	15.8	
Cc1ccc(Nc2nc(N)c3ccccc3n2)cc1Cl	98.03 ± 0.51	427	1980	23.3	60.8	67.5	
O=C(Nc1ccc(Cl)c(Cl)c1)Nc1ccc(Cl)c(Cl)c1	100.5 ± 0.22	7140	196	15.3	29.9	72.5	
CCCCC(O)(c1ccc(Cl)cc1)C(CN1CCOCC1)c1ccc(Cl)cc1 (stereo not drawn)	99.1 ± 0.71	2010	5000	21	18.3	40.5	
O=C(NCCCN1CCC(N2CCCCC2)CC1)C1=Cc2cc(Br)ccc2OC1	88.9 ± 1.1	348	2690	27	57.9	66.7	
COc1ccc(C(=O)NC(c2ccccc2Cl)c2cc(Cl)c3cccnc3c2O)cc1 (stereo not drawn)	96.55 ± 0.71		592	13.2	31.2	57.7	
CN(C)c1ccc(N2C(N)=NC(N)=NC2(C)C)cc1	< 0	5680		7.46	13.2	46.8	23
CCn1c(CN2CCN(Cc3ccccc3)CC2)nc2cc(NC(=O)c3cccs3)ccc21	< 0	615		40.6	47.9	56	0
COc1ccc2c(c1OC)C(=O)N1c3ccccc3N=C(c3ccc(C)cc3)CC21 (stereo not drawn)	< 0	6080		20.9	71.5	80.7	32
CCCCc1c(CCC)c(=N)c2ccccc2n1C	< 0	3930		7.81	11.2	39.6	23
CCCc1cc(O)c2c3c(c(=O)oc2c1)CN(C)CC3	< 0	364		25.2	60.2	68	33
Cc1cc(C)c2nc(N3CCC(C(=O)NCCCN4CCC(N5CCCCC5)CC4)CC3)sc2c1	< 0	1080		18.8	46.7	59.8	16
COc1ccc(CN2CCCC(C(=O)c3ccc(C(F)(F)F)cc3)C2)c(O)c1 (stereo not drawn)	< 0	912		9.13	32	51.1	20
c1ccc(-c2ccc(-c3nc4ccccc4[nH]3)cc2)cc1	12.3 ± 15	928		8.54	24.5	41	0
Cc1ccc(F)cc1NC(=O)c1cc(Cl)ccc1Nc1ccccc1	< 0	1790		54.4	70.7	81.9	26
COc1ccccc1N1CCN(C(CNS(=O)(=O)c2ccc(Cl)cc2)c2cccnc2)CC1 (stereo not drawn)	4.77 ± 8.3	2260		16	20.5	49.3	34
COc1ccccc1CNC(=O)C1c2ccccc2C(=O)N(CC(C)C)C1c1cccs1 (stereo not drawn)	< 0	926		34.5	45	68.1	24

SMILES	% growth inhibition [1] [%]	EC50 growth inhibition [2] [nM]	EC50 growth inhibition [3] [nM]	% inhibition of schizont-to-ring transition ([4]; 1 µM) [%]	% inhibition of schizont-to-ring transition ([4]; 3 µM) [%]	% inhibition of schizont-to-ring transition ([4]; 10 µM) [%]	plaque count per well [5]
COc1cccc(Nc2nc(N)c3ccccc3n2)c1	< 0	1320		< 0	12.3	41.7	0
Cc1ccc(-c2cc(C(=O)Nc3ccc(S(=O)(=O)N4CCCCC4)cc3)[nH]n2)c(O)c1	< 0	9180		28.1	58.9	67.5	18
Cc1cccc(Nc2nc(N)c3ccccc3n2)c1	< 0	669		3.41	36.1	54.2	0
Cc1cc(=O)oc2c1ccc1oc(C(=O)c3ccccc3)c(C)c12	< 0	1870		10.7	25.9	45.3	28
Cc1ccc(S(=O)(=O)c2c(COC(=O)c3cccc(C)c3)c(-c3ccccc3)nn2C)cc1	99.44 ± 0.48		2060	< 0	1.67	32.1	
CCCN(CCC)CC(O)COc1ccccc1C(=O)Nc1ccccc1 (stereo not drawn)	< 0	420		33	65.6	73.5	25
O=[N+]([O-])c1ccc(C=NNc2nc3ccccc3[nH]2)cc1	< 0	663		29	43.8	49	33
O=C(CCc1ccco1)NC1CCN(CC2(c3ccc(Cl)cc3)CCC2)CC1	< 0	509		18.8	41	67.5	23
COc1ccc(OC)c(C2C3=C(CC(C)(C)CC3=O)N(c3ccc(Cl)c(Cl)c3)C3=C2C(=O)CC(C)(C)C3)c1	< 0	7740		16.9	20.7	50.7	38
Cc1ccc(CSCc2ccc(C(=O)NC3CC3)o2)cc1	3.19 ± 5.5	1000		14.1	44.2	67.4	25
CCn1c2c(c(=N)c3c1CCC3)CCCC2	< 0	2640		43.8	47.9	56.4	34
Cc1cc(C=C2SC(=Nc3ccccc3)N(C3CCCC3)C2=O)c(C)n1-c1ccc(Cl)cc1	< 0	5270		17.8	26.2	37.9	23
CCc1c(C)c(=N)c2ccccc2n1C	< 0	3380		5.96	11.3	33.6	25
CN1CCN(c2nc(Nc3ccc(O)cc3)nc3ccccc23)CC1	< 0	1260		34.7	33.4	52.2	29
Cc1ccc(CN2CCC(C(=O)Nc3ccc(-c4cc5ccccc5[nH]4)cc3)CC2)o1	< 0	2170		21.9	44.3	68.2	38
CN1C=C(c2ccc3ccccc3n2)C(c2c[nH]c3ccccc23)c2ccccc21 (stereo not drawn)	< 0	638		26.7	37.7	70.6	0
CC1CCN(Cc2ccc(NC(=O)c3cc4ccc5cccnc5c4[nH]3)cc2)CC1	< 0	241		42.3	50	55.4	18
COc1ccc(-c2nonc2NC(=O)c2cccc(C)c2)cc1OC	3.28 ± 4.1	628		32.8	59	67.1	28
CCOc1cc(CNC(C)C(O)c2ccccc2)cc(Cl)c1OCC (stereo not drawn)	15 ± 24	1060		2	17.2	44.2	0
CCn1c(SCC(=O)Nc2cc(C(F)(F)F)ccc2Cl)nc2ccccc2c1=O	< 0	6480		22.9	30.1	43.7	26
